Experimental data taken from patent publication US8193372B2, “Phosphothiophene and phosphothiazole HCV polymerase inhibitors” (Idenix Pharmaceuticals, Inc., priority 2009, dated 2012).

Tests used:
[1] = system: HCV Con1 subgenomic replicon of genotype 1b (GS4.1 cells); assay: microbe, parasite or virus in culture; assay type: cell-based, HCV genotype 1b; conditions: Hepatitis C virus; for EC50: 72 h
[2] = Cytotoxicity (CC50) reported with the HCV replicon ELISA assay; conditions: human
[3] = system: Huh-7-derived cell line (Zluc) that harbors an HCV genotype 1b replicon and a luciferase reporter gene; assay: microbe, parasite or virus in culture; assay type: cell-based; conditions: Hepatitis C virus, 72 h
[4] = system: Huh-7-derived cell line (Zluc) that harbors an HCV genotype 1b replicon and a luciferase reporter gene; assay: microbe, parasite or virus in culture; assay type: cell-based; conditions: Hepatitis C virus, 72 h; remark: listed apart in the source
in vitro = conditions: human

SMILES	IC50 [1]	EC50 [1]	CC50 at 72 hr [2]	EC50 [3]	EC50 [4]	CC50 (in vitro)
Cc1ccc(P(=O)(O)Nc2cc(-c3ccc(F)cc3)sc2C(=O)O)c(C)c1 [Compound 1]	0.1 to 8.3 µM	> 8.3 µM	> 8.3 µM	–	–	–
CCOP(=O)(Nc1cc(-c2ccc(-c3cc4ncccn4n3)cc2)sc1C(=O)O)c1ccc(Cl)cc1Cl (stereo not drawn) [Compound 11, 3-N-[(2,4-dichloro-phenyl)-phosphonamidateethyl ester]-5-(4-pyrazolo[1,5-a]pyrimidin-2-ylphenyl)-2-thiophenecarboxylic acid]	< 0.1 µM	< 0.1 µM	–	< 0.1 µM	0.1 to 8.3 µM	> 8.3 µM
COP(=O)(Nc1cc(-c2ccc(F)cc2)sc1C(=O)O)c1ccc(C)cc1C (stereo not drawn) [Compound 21, 2-Thiophenecarboxylic acid, 3-N-[(2,4-dimethyl-phenyl)-phosphonamidatemethyl ester]-5-(4-fluorophenyl)]	0.1 to 8.3 µM	0.1 to 8.3 µM	–	0.1 to 8.3 µM	> 8.3 µM	> 8.3 µM
CCOP(=O)(Nc1cc(-c2ccc(C#Cc3cscn3)cc2)sc1C(=O)O)c1ccc(Cl)cc1Cl (stereo not drawn) [Compound 24, 3-N-[(2,4-dichloro-phenyl)-phosphonamidateethyl ester]-5-(4-phenyl-ethynyl-1,3-thiazole)-2-thiophenecarboxylic acid]	< 0.1 µM	0.1 to 8.3 µM	–	0.1 to 8.3 µM	0.1 to 8.3 µM	> 8.3 µM
COP(=O)(c1ccc(C)cc1C)N(C)c1cc(-c2ccc(F)cc2)sc1C(=O)O (stereo not drawn) [Compound 32, 2-Thiophenecarboxylic acid, 3-N-methyl-N-[(2,4-dimethyl-phenyl)-phosphonamidatemethyl ester]-5-(4-fluorophenyl)]	0.1 to 8.3 µM	0.1 to 8.3 µM	–	0.1 to 8.3 µM	> 8.3 µM	> 8.3 µM
Cc1ccc(P(=O)(Nc2cc(-c3ccc(Cl)cc3)sc2C(=O)O)OCCC(C)C)c(C)c1 (stereo not drawn) [Compound 81]	0.1 to 8.3 µM	0.1 to 8.3 µM	> 8.3 µM	–	–	–
Cc1ccc(P(=O)(Nc2cc(-c3ccc(Cl)cc3)sc2C(=O)O)OCC2CCOCC2)c(C)c1 (stereo not drawn) [Compound 84]	0.1 to 8.3 µM	0.1 to 8.3 µM	> 8.3 µM	–	–	–
COCCOP(=O)(Nc1cc(-c2ccc(Cl)cc2)sc1C(=O)O)c1ccc(C)cc1C (stereo not drawn) [Compound 85]	0.1 to 8.3 µM	0.1 to 8.3 µM	> 8.3 µM	–	–	–
Cc1ccc(P(=O)(Nc2cc(-c3ccc(Cl)cc3)sc2C(=O)O)OCC(C)C)c(C)c1 (stereo not drawn) [Compound 86]	0.1 to 8.3 µM	0.1 to 8.3 µM	> 8.3 µM	–	–	–
Cc1ccc(P(=O)(Nc2cc(-c3ccc(Cl)cc3)sc2C(=O)O)OCCC(C)(C)C)c(C)c1 (stereo not drawn) [Compound 90]	0.1 to 8.3 µM	0.1 to 8.3 µM	> 8.3 µM	–	–	–
Cc1ccc(P(=O)(Nc2cc(-c3ccc(Cl)cc3)sc2C(=O)O)OCC2CC2)c(C)c1 (stereo not drawn) [Compound 91]	0.1 to 8.3 µM	0.1 to 8.3 µM	> 8.3 µM	–	–	–
Cc1ccc(P(=O)(Nc2cc(-c3ccc(Cl)cc3)sc2C(=O)O)OCCc2ccc(F)cc2)c(C)c1 (stereo not drawn) [Compound 92]	0.1 to 8.3 µM	0.1 to 8.3 µM	> 8.3 µM	–	–	–
Cc1ccc(P(=O)(Nc2cc(-c3ccc(Cl)cc3)sc2C(=O)O)OCc2cc3ccccc3o2)c(C)c1 (stereo not drawn) [Compound 93]	0.1 to 8.3 µM	0.1 to 8.3 µM	> 8.3 µM	–	–	–
Cc1ccc(P(=O)(Nc2cc(-c3ccc(Cl)cc3)sc2C(=O)O)OC2CCOC2)c(C)c1 (stereo not drawn) [Compound 94]	0.1 to 8.3 µM	0.1 to 8.3 µM	> 8.3 µM	–	–	–
COC1CCC(OP(=O)(Nc2cc(-c3ccc(Cl)cc3)sc2C(=O)O)c2ccc(C)cc2C)CC1 (stereo not drawn) [Compound 95]	0.1 to 8.3 µM	0.1 to 8.3 µM	> 8.3 µM	–	–	–
Cc1ccc(P(=O)(Nc2cc(-c3ccc(Cl)cc3)sc2C(=O)O)OCc2ccccc2)c(C)c1 (stereo not drawn) [Compound 107]	–	0.1 to 8.3 µM	> 8.3 µM	–	–	–
CCOCCOP(=O)(Nc1cc(-c2ccc(Cl)cc2)sc1C(=O)O)c1ccc(C)cc1C (stereo not drawn) [Compound 130]	0.1 to 8.3 µM	–	> 8.3 µM	–	–	–
Cc1ccc(P(=O)(Nc2cc(-c3ccc(Cl)cc3)sc2C(=O)O)OC2CCOCC2)c(C)c1 (stereo not drawn) [Compound 135]	< 0.1 µM	0.1 to 8.3 µM	> 8.3 µM	–	–	–
CCCCOP(=O)(Nc1cc(-c2ccc(Cl)cc2)sc1C(=O)O)c1ccc(C)cc1C (stereo not drawn) [Compound 137]	0.1 to 8.3 µM	0.1 to 8.3 µM	> 8.3 µM	–	–	–
COP(=O)(Nc1cc(-c2ccc(C#Cc3cscn3)cc2)sc1C(=O)O)c1ccc(C)cc1C (stereo not drawn) [Compound 139]	< 0.1 µM	< 0.1 µM	–	–	–	> 8.3 µM
COC(=O)c1sc(-c2ccc(Cl)cc2)cc1NP(=O)(OC)c1ccc(C)cc1C (stereo not drawn) [Compound 140]	–	> 8.3 µM	–	–	–	> 8.3 µM
COP(=O)(Nc1cc(-c2ccc(Br)cc2)sc1C(=O)O)c1ccc(C)cc1C (stereo not drawn) [Compound 141]	< 0.1 µM	0.1 to 8.3 µM	–	–	–	> 8.3 µM
COC(=O)c1sc(-c2ccc(-c3cc4ncccn4n3)cc2)cc1NP(=O)(OC)c1ccc(C)cc1C (stereo not drawn) [Compound 142]	–	0.1 to 8.3 µM	–	–	–	> 8.3 µM
COP(=O)(Nc1cc(-c2ccc(C#Cc3ccccn3)cc2)sc1C(=O)O)c1ccc(C)cc1C (stereo not drawn) [Compound 143]	< 0.1 µM	< 0.1 µM	–	–	–	> 8.3 µM
COC(=O)c1sc(-c2ccc(I)cc2)cc1NP(=O)(OC)c1ccc(C)cc1C (stereo not drawn) [Compound 144]	–	> 8.3 µM	–	–	–	> 8.3 µM

SMILES	IC50 [1]	EC50 [1]	CC50 at 72 hr [2]	EC50 [3]	EC50 [4]	CC50 (in vitro)
COP(=O)(c1ccc(C)cc1C)N(C)c1cc(-c2ccc(-c3cc4ncccc4o3)cc2)sc1C(=O)O (stereo not drawn) [Compound 145]	< 0.1 µM	< 0.1 µM	–	–	–	> 8.3 µM
COP(=O)(Nc1cc(-c2ccc(C#Cc3ccccc3)cc2)sc1C(=O)O)c1ccc(C)cc1C (stereo not drawn) [Compound 146]	< 0.1 µM	< 0.1 µM	–	–	–	> 8.3 µM
COP(=O)(Nc1cc(-c2ccc(-c3ccc(Cl)c(Cl)c3)cc2)sc1C(=O)O)c1ccc(C)cc1C (stereo not drawn) [Compound 147]	0.1 to 8.3 µM	0.1 to 8.3 µM	–	–	–	> 8.3 µM
COC(=O)c1sc(-c2ccc(Br)cc2)cc1NP(=O)(OC)c1ccc(C)cc1C (stereo not drawn) [Compound 148]	> 8.3 µM	> 8.3 µM	–	–	–	> 8.3 µM
COc1ccc(-c2cc(NP(=O)(OC)c3ccc(C)cc3C)c(C(=O)O)s2)cc1 (stereo not drawn) [Compound 149]	< 0.1 µM	0.1 to 8.3 µM	–	–	–	> 8.3 µM
CCOP(=O)(Nc1cc(-c2ccc(-c3cc4ncccc4o3)cc2)sc1C(=O)O)c1ccc(Cl)cc1Cl (stereo not drawn) [Compound 150]	< 0.1 µM	< 0.1 µM	–	–	–	> 8.3 µM
COP(=O)(Nc1cc(-c2ccc(Cl)cc2Cl)sc1C(=O)O)c1ccc(C)cc1C (stereo not drawn) [Compound 151]	0.1 to 8.3 µM	> 8.3 µM	–	–	–	> 8.3 µM
COP(=O)(Nc1cc(-c2ccc(CC(C)C)cc2)sc1C(=O)O)c1ccc(C)cc1C (stereo not drawn) [Compound 154]	0.1 to 8.3 µM	> 8.3 µM	–	–	–	> 8.3 µM
CCOP(=O)(Nc1cc(-c2cc3ccccc3s2)sc1C(=O)O)c1ccc(Cl)cc1Cl (stereo not drawn) [Compound 157]	0.1 to 8.3 µM	> 8.3 µM	–	–	–	> 8.3 µM
CCOP(=O)(Nc1cc(-c2ccc(OCc3ccccc3)cc2)sc1C(=O)O)c1ccc(Cl)cc1Cl (stereo not drawn) [Compound 158]	0.1 to 8.3 µM	0.1 to 8.3 µM	–	–	–	> 8.3 µM
COP(=O)(Nc1cc(-c2ccccc2)sc1C(=O)O)c1ccc(Cl)cc1Cl (stereo not drawn) [Compound 159]	0.1 to 8.3 µM	> 8.3 µM	–	–	–	> 8.3 µM
CCOP(=O)(Nc1cc(-c2ccc(Cl)c(Cl)c2)sc1C(=O)O)c1ccc(Cl)cc1Cl (stereo not drawn) [Compound 161]	0.1 to 8.3 µM	> 8.3 µM	–	–	–	> 8.3 µM
COP(=O)(Nc1cc(-c2ccccc2)sc1C(=O)O)c1ccc(C)cc1C (stereo not drawn) [Compound 162]	–	–	–	0.1 to 8.3 µM	> 8.3 µM	–
CCOP(=O)(Nc1cc(-c2ccc(Cl)cc2)sc1C(=O)O)c1ccc(Cl)cc1Cl (stereo not drawn) [Compound 163]	0.1 to 8.3 µM	0.1 to 8.3 µM	–	–	–	> 8.3 µM
COP(=O)(Nc1cc(-c2ccc(-c3cc4ncccn4n3)cc2)sc1C(=O)O)c1ccc(C)cc1C (stereo not drawn) [Compound 169]	–	–	–	< 0.1 µM	< 0.1 µM	–
CCOP(=O)(Nc1cc(-c2ccc(F)cc2)sc1C(=O)OC)c1ccc(Cl)cc1Cl (stereo not drawn) [Compound 170]	–	> 8.3 µM	–	–	–	> 8.3 µM
COC(=O)c1sc(-c2ccc(F)cc2)cc1NP(=O)(OC(C)C)c1ccc(C)cc1C (stereo not drawn) [Compound 171]	> 8.3 µM	> 8.3 µM	> 8.3 µM	–	–	–
COC(=O)c1sc(-c2ccc(F)cc2)cc1NP(=O)(OC)c1ccc(C)cc1C (stereo not drawn) [Compound 172]	> 8.3 µM	> 8.3 µM	–	–	–	> 8.3 µM
CCOP(=O)(Nc1cc(-c2ccc(F)cc2)sc1C(=O)OC)c1ccc(C)cc1C (stereo not drawn) [Compound 173]	> 8.3 µM	> 8.3 µM	–	–	–	> 8.3 µM
COP(=O)(Cc1cc(-c2ccc(-c3cc4ncccc4o3)cc2)sc1C(=O)O)c1ccc(C)cc1C (stereo not drawn) [Compound 174]	< 0.1 µM	< 0.1 µM	–	–	–	> 8.3 µM
CCOP(=O)(Cc1cc(-c2ccc(-c3cc4ncccn4n3)cc2)sc1C(=O)O)c1ccc(C)cc1C (stereo not drawn) [Compound 175]	< 0.1 µM	0.1 to 8.3 µM	–	–	–	> 8.3 µM
COP(=O)(Cc1cc(-c2ccc(F)cc2)sc1C(=O)O)c1ccc(C)cc1C (stereo not drawn) [Compound 176]	0.1 to 8.3 µM	> 8.3 µM	–	–	–	> 8.3 µM
COP(=O)(Cc1cc(-c2ccccc2)sc1C(=O)O)c1ccc(C)cc1C (stereo not drawn) [Compound 177]	0.1 to 8.3 µM	> 8.3 µM	–	–	–	> 8.3 µM
CCOP(=O)(Cc1cc(-c2ccccc2)sc1C(=O)O)c1ccc(C)cc1C (stereo not drawn) [Compound 178]	0.1 to 8.3 µM	> 8.3 µM	–	–	–	> 8.3 µM
CCOP(=O)(Cc1cc(-c2ccc(F)cc2)sc1C(=O)O)c1ccc(C)cc1C (stereo not drawn) [Compound 179]	0.1 to 8.3 µM	> 8.3 µM	–	–	–	> 8.3 µM
